# Source: patent US9738629B2, “Bridged ring compounds as Hepatitis C virus inhibitors, pharmaceutical compositions and uses thereof” (SUNSHINE LAKE PHARMA CO., LTD., priority 2014, dated 2017)
# Columns and labels:
# HCV GT1a replicon = assay: HCV replicon assay, genotype 1a, in Huh-7 cells; type: cell-based; conditions: Hepatitis C virus; Huh-7 cells stably transfected with HCV GT1a replicon, 72 hours incubation; luciferase or NEO gene qPCR readout; read-out: EC50 against HCV 1a genotype
# Method: (§1) HCV Replicon System was utilized as a screening model in the present disclosure to evaluate the antivirus effects of the compounds disclosed herein against HCV. HCV Replicon assay was first described in Science, 1999, 285 (5424), 110-3. […] To determine the potential anti-HCV effects of the test compounds, luciferase assay and antibiotic Neomycin resistance gene were tested according to the method described in Science. 1999 Jul. 2; 285 (5424), 110-3 and J. Virol. 2003 March; 77 (5), 3007-19.
# (§2) In a word, the compounds disclosed herein were tested by using human hepatic carcinoma cell line Huh-7 which is transfected stably with HCV GT1a, GT1b or GT2a replicon respectively, and resistant cells of Y93H, L31F, P32L or I302V and wild-type cells HCV 1b. HCV Replicon System disclosed herein contains G418 resistance gene NEO and Luciferase Reporter Gene, and the level of HCV replication in host cells is detected and characterized by the expression level of the NEO gene or Luciferase Reporter Gene, so the effects of the compounds herein inhibit HCV replication can be evaluated in this system. In this article, a real-time quantitative polymerase chain reaction (qPCR) method was used to detect NEO gene expression level, and chemiluminescence method was used to test Luciferase Reporter Gene expression level.
# (§3) The Huh-7 cells transfected with HCV replicons system were seeded into 96-well plates (8,000 cells in 125 μL/well) respectively; each test compound was diluted to desired concentration using 5-fold serial dilutions protocol, 10 doses in duplicate (initial concentration for 10 nM) and added to wells with POD™ 810 Plate Assembler. The plates were incubated in a CO2 incubator for 72 hours; after that, 40 μL of Luciferase assay substrate (Promega Bright-Glo) was added to each well, and detected by a chemiluminescence detection system (Topcount Microplate Scintillation and Luminescence Counter) 5 minutes later; the EC50 (half-maximal effective concentration, concentration for 50% of maximal effect) values of test compounds were analyzed by GraphPad Prism software. In this paper, experiments were repeated twice and set the wells without compounds as negative control.
# as §3, with “hours;” for “hours; after that, 40 μL of Luciferase assay substrate (Promega Bright-Glo) was added to each well,”, “the expression level of the NEO gene expression with real-time quantitative PCR” for “by a chemiluminescence detection system (Topcount Microplate Scintillation and Luminescence Counter) 5 minutes”, “software, respectively.” for “software.”
# HCV GT1b replicon = assay: HCV replicon assay, genotype 1b, in Huh-7 cells; type: cell-based; conditions: Hepatitis C virus; Huh-7 cells stably transfected with HCV GT1b replicon, 72 hours incubation; luciferase or NEO gene qPCR readout; read-out: EC50 against HCV 1b genotype
# Method: as §1, §2, §3
# as §3, with “hours;” for “hours; after that, 40 μL of Luciferase assay substrate (Promega Bright-Glo) was added to each well,”, “the expression level of the NEO gene expression with real-time quantitative PCR” for “by a chemiluminescence detection system (Topcount Microplate Scintillation and Luminescence Counter) 5 minutes”, “software, respectively.” for “software.”
Structure (SMILES),EC50 (HCV GT1a replicon),EC50 (HCV GT1b replicon)
COC(=O)N[C@H](C(=O)N1[C@@H](C)CC[C@H]1c1nc2ccc(-c3ccc(-c4ccc(-c5cnc([C@@H]6C[C@@H]7CCC[C@@H]7N6C(=O)[C@@H](NC(=O)OC)[C@@H](C)OC)[nH]5)cc4)c4c3C3CCC4C3)cc2[nH]1)C(C)C (stereo partly shown) [Example 11],235 pM,12 pM
CCC(C)[C@H](NC(=O)OC)C(=O)N1C[C@@H](CC)C[C@H]1c1ncc(-c2ccc(-c3ccc(-c4ccc5nc([C@@H]6CC[C@H](C)N6C(=O)[C@@H](NC(=O)OC)C(C)C)[nH]c5c4)c4c3C3CCC4C3)cc2)[nH]1 (stereo partly shown) [Example 10],57 pM,9 pM
COC(=O)N[C@H](C(=O)N1C(c2ncc(-c3ccc(-c4ccc(-c5cnc([C@@H]6CC[C@H](C)N6C(=O)[C@@H](NC(=O)OC)C(C)C)[nH]5)c5c4C4CCC5C4)cc3)[nH]2)CC[C@@H]1C)C(C)C (stereo partly shown) [Example 1],19 pM,4 pM
COC(=O)N[C@H](C(=O)N1C[C@@H](C)C[C@H]1c1nc2ccc(-c3ccc(-c4ccc(-c5cnc(C6CC[C@H](C)N6C(=O)[C@@H](NC(=O)OC)C(C)C)[nH]5)cc4)c4c3C3CCC4C3)cc2[nH]1)C(C)C (stereo partly shown) [Example 2],4 pM,4 pM
COC(=O)N[C@H](C(=O)N1C[C@@H](C)CC1c1ncc(-c2ccc(-c3ccc(-c4ccc5nc([C@@H]6CC[C@H](C)N6C(=O)[C@@H](NC(=O)OC)C(C)C)[nH]c5c4)c4c3C3CCC4C3)cc2)[nH]1)C(C)C (stereo partly shown) [Example 4],131 pM,5 pM
COC(=O)N[C@H](C(=O)N1C[C@@H](C)C[C@H]1c1ncc(-c2ccc(-c3ccc(-c4ccc5nc([C@@H]6CC[C@H](C)N6C(=O)[C@@H](NC(=O)OC)C6CCOCC6)[nH]c5c4)c4c3C3CCC4C3)cc2)[nH]1)C(C)C (stereo partly shown) [Example 7],87 pM,5 pM
COC[C@H]1C[C@@H](c2ncc(-c3ccc(-c4ccc(-c5ccc6nc([C@@H]7CC[C@H](C)N7C(=O)[C@@H](NC(=O)OC)C(C)C)[nH]c6c5)c5c4C4CCC5C4)cc3)[nH]2)N(C(=O)[C@@H](NC(=O)OC)C(C)C)C1 (stereo partly shown) [Example 9],123 pM,8 pM
COC(=O)N[C@H](C(=O)N1C(c2ncc(-c3ccc(-c4ccc(-c5ccc6nc([C@@H]7CC[C@H](C)N7C(=O)[C@@H](NC(=O)OC)C(C)C)[nH]c6c5)c5c4C4CCC5C4)cc3)[nH]2)CC[C@@H]1C)C(C)C (stereo partly shown) [Example 3],8 pM,5 pM
CC[C@H]1CC[C@@H](c2nc3ccc(-c4ccc(-c5ccc(-c6cnc([C@@H]7C[C@H](C)CN7C(=O)[C@@H](NC(=O)OC)C(C)C)[nH]6)cc5)c5c4C4CCC5C4)cc3[nH]2)N1C(=O)[C@@H](NC(=O)OC)C(C)C (stereo partly shown) [Example 8],63 pM,9 pM
COC(=O)N[C@H](C(=O)N1C[C@@H](C)C[C@H]1c1ncc(-c2ccc(-c3ccc(-c4ccc5nc([C@@H]6CC[C@H](C)N6C(=O)[C@H](NC(=O)OC)c6ccccc6)[nH]c5c4)c4c3C3CCC4C3)cc2)[nH]1)C(C)C (stereo partly shown) [Example 6],32 pM,6 pM
COC(=O)NC(C(=O)N1C[C@@H](C)CC1c1ncc(-c2ccc(-c3ccc(-c4ccc5nc([C@@H]6CC[C@H](C)N6C(=O)[C@@H](NC(=O)OC)C(C)C)[nH]c5c4)c4c3C3CCC4C3)cc2)[nH]1)c1ccccc1 (stereo partly shown) [Example 5],98 pM,7 pM
